Counter-ions that a name gives are not always drawn.
Target: T1, full length SGK1 (Homo sapiens, UniProt O00141)
T1 construct: 125 μM full length SGK1 (Life Technologies Part #PR7358A); purchased Life Technologies PR7358A
T1 sequence (O00141 1-431): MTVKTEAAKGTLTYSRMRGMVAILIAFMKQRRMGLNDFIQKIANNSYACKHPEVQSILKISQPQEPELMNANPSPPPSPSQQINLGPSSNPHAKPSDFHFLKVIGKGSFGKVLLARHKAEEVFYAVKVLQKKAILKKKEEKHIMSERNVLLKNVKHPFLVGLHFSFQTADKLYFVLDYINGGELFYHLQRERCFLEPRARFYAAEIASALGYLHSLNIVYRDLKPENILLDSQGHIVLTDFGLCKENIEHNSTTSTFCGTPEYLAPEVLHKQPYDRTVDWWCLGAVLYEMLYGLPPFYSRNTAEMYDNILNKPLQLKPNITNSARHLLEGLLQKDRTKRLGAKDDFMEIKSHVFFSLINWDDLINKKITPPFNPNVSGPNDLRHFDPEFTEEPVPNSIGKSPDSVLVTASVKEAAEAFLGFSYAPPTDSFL
Assay: SGK1 inhibition Assay A (Caliper LabChip electrophoretic separation of fluorescent peptide substrate and phosphorylated product)
Assay type: biochemical
Details: Assay A; 20 μM ATP, 40 min incubation; read-out: SGK1 IC50

IC50 [nM]	Compound
3	N#Cc1ccc(-c2cc(N3CCC[C@@H](NC(=O)c4sc5ccccc5c4OC4CCNCC4)C3)c3c(N)ncnn23)cn1 [Example 656, (R)—N-(1-(4-amino-7-(6-cyanopyridin-3-yl)pyrrolo[2,1-f][1,2,4]triazin-5-yl)piperidin-3-yl)-3-(piperidin-4-yloxy)benzo[b]thiophene-2-carboxamide]
73	CS(=O)(=O)c1ccc(-c2cc(N3CCCC(NC(=O)c4ccc(Cl)cc4)C3)c3c(N)ncnn23)cc1 (centres unmarked) [Example 5, N-(1-(4-amino-7-(4-(methylsulfonyl)phenyl)pyrrolo[2,1-f][1,2,4]triazin-5-yl)piperidin-3-yl)-4-chlorobenzamide, TFA]
5	CC(=O)N1CC=C(c2cc(N3CCC[C@@H](NC(=O)c4sc(Cl)cc4OC4CCNC4)C3)c3c(N)ncnn23)C1 (stereo partly drawn) [Example 636, N-((R)-1-(7-(1-acetyl-2,5-dihydro-1H-pyrrol-3-yl)-4-aminopyrrolo[2,1-f][1,2,4]triazin-5-yl)piperidin-3-y1)-5-chloro-3-(pyrrolidin-3-yloxy)thiophene-2-carboxamide]
2	Cc1cc(N2CCOCC2)c(C(=O)N[C@@H]2CCCN(c3cc(-c4ccnc(F)c4)n4ncnc(N)c34)C2)s1 [Example 198, (R)—N-(1-(4-amino-7-(2-fluoropyridin-4-yl)pyrrolo[2,1-f][1,2,4]triazin-5-yl)piperidin-3-yl)-5-methyl-3-morpholinothiophene-2-carboxamide, 2 TFA]
1	CC(=O)N1CC=C(c2cc(N3CCC[C@@H](NC(=O)c4sc(Cl)cc4OCCN4CCC(C)(N)CC4)C3)c3c(N)ncnn23)C1 [Example 300, (R)-N-(1-(7-(1-acetyl-2,5-dihydro-1H-pyrrol-3-yl)-4-aminopyrrolo[2,1-f][1,2,4]triazin-5-yl)piperidin-3-yl)-3-(2-(4-amino-4-methylpiperidin-1-yl)ethoxy)-5-chlorothiophene-2-carboxamide]
9	NCCOc1cc(Cl)sc1C(=O)N[C@@H]1CCCN(c2cc(-c3cncnc3)n3ncnc(N)c23)C1 [Example 327, (R)—N-(1-(4-amino-7-(pyrimidin-5-yl)pyrrolo[2,1-f][1,2,4]triazin-5-yl)piperidin-3-yl)-3-(2-aminoethoxy)-5-chlorothiophene-2-carboxamide]
3	CC(=O)N1CC=C(c2cc(N3CCC[C@@H](NC(=O)c4sc(Cl)cc4OC4CCN(C)CC4F)C3)c3c(N)ncnn23)C1 (stereo partly drawn) [Example 605, N-((R)-1-(7-(1-acetyl-2,5-dihydro-1H-pyrrol-3-yl)-4-aminopyrrolo[2,1-f][1,2,4]triazin-5-yl)piperidin-3-y1)-5-chloro-3-((3-fluoro-1-methylpiperidin-4-yl)oxy)thiophene-2-carboxamide]
222	CS(=O)(=O)c1ccc(-c2c(Cl)c(N3CCC[C@@H](NC(=O)c4ccncc4)C3)c3c(N)ncnn23)cc1 [Example 196, N-[(3R)-1-[4-amino-6-chloro-7-(4-methanesulfonylphenyl)pyrrolo[2,1-f][1,2,4]triazin-5-yl]piperidin-3-yl]pyridine-4-carboxamide]
274	CS(=O)(=O)c1ccc(-c2cc(N3CCC[C@@H](NC(=O)c4ccccc4Cl)C3)c3c(N)ncnn23)cc1 [Example 19, (R)-N-(1-(4-amino-7-(4-(methylsulfonyl)phenyl)pyrrolo[2,1-f][1,2,4]triazin-5-yl)piperidin-3-yl)-2-chlorobenzamide]
19	Nc1ncnn2c(-c3ccnc(C(F)F)c3)cc(N3CCC[C@@H](NC(=O)c4sc(C(F)F)cc4N4CC5(COC5)C4)C3)c12 [Example 345, (R)—N-(1-(4-amino-7-(2-(difluoromethyl)pyridin-4-yl)pyrrolo[2,1-f][1,2,4]triazin-5-yl)piperidin-3-yl)-5-(difluoromethyl)-3-(2-oxa-6-azaspiro[3.3]heptan-6-yl)thiophene-2-carboxamide]
287	COc1cnccc1C(=O)N[C@@H]1CCCN(c2cc(-c3ccc(S(C)(=O)=O)cc3)n3ncnc(N)c23)C1 [Example 68, (R)-N-(1-(4-amino-7-(4-(methylsulfonyl)phenyl)pyrrolo[2,1-f][1,2,4]triazin-5-yl)piperidin-3-yl)-3-methoxyisonicotinamide]
735	CS(=O)(=O)c1ccc(-c2cc(N3CCC[C@@H](NC(=O)c4cn5c(n4)CCCC5)C3)c3c(N)ncnn23)cc1 [Example 44]
157	CS(=O)(=O)c1ccc(-c2cc(N3CCCC(NC(=O)c4ccc(Cl)c(Cl)c4)C3)c3c(N)ncnn23)cc1 (centres unmarked) [Example 6, N-(1-(4-amino-7-(4-(methylsulfonyl)phenyl)pyrrolo[2,1-f][1,2,4]triazin-5-yl)piperidin-3-yl)-3,4-dichlorobenzamide]
79	CC(=O)N1CC=C(c2cc(N3CCC[C@@H](NC(=O)c4ccnc(N5CC6(C5)CN(C(C)C)C6)n4)C3)c3c(N)ncnn23)C1 [Example 752, (R)-N-(1-(7-(1-acetyl-2,5-dihydro-1H-pyrrol-3-yl)-4-aminopyrrolo[2,1-f][1,2,4]triazin-5-yl)piperidin-3-yl)-2-(6-isopropyl-2,6-diazaspiro[3.3]heptan-2-yl)pyrimidine-4-carboxamide]
67	COc1ccc(C(=O)NC2CCCN(c3cc(-c4ccc(S(C)(=O)=O)cc4)n4ncnc(N)c34)C2)cc1 (centres unmarked) [Example 8, N-(1-(4-amino-7-(4-(methylsulfonyl)phenyl)pyrrolo[2,1-f][1,2,4]triazin-5-yl)piperidin-3-yl)-4-methoxybenzamide, TFA]
13	CC(=O)N1CC=C(c2cc(N3CCC[C@@H](NC(=O)c4cccc(C5CC5)n4)C3)c3c(N)ncnn23)C1 [Example 710, (R)-N-(1-(7-(1-acetyl-2,5-dihydro-1H-pyrrol-3-yl)-4-aminopyrrolo[2,1-f][1,2,4]triazin-5-yl)piperidin-3-yl)-6-cyclopropylpicolinamide,]
6	COC(=O)N1CC=C(c2cc(N3CCC[C@@H](NC(=O)c4sc(Cl)cc4OC4CCN(C5CC5)CC4)C3)c3c(N)ncnn23)C1 [Example 616, methyl (R)-3-(4-amino-5-(3-(5-chloro-3-((1-cyclopropylpiperidin-4-yl)oxy)thiophene-2-carboxamido)piperidin-1-yl)pyrrolo[2,1-f][1,2,4]triazin-7-yl)-2,5-dihydro-1H-pyrrole-1-carboxylate]
1	CC(=O)N1CC=C(c2cc(N3CCC[C@@H](NC(=O)c4ccc(-c5ccccc5)o4)C3)c3c(N)ncnn23)C1 [Example 454, (R)-N-(1-(7-(1-acetyl-2,5-dihydro-1H-pyrrol-3-yl)-4-aminopyrrolo[2,1-f][1,2,4]triazin-5-yl)pipridin-3-yl)-5-phenylfuran-2-carboxamide]
40	CN(C)CCOc1c(C(=O)N[C@@H]2CCCN(c3cc(-c4ccc(C(N)=O)nc4)n4ncnc(N)c34)C2)sc2ccncc12 [Example 670, (R)-N-(1-(4-amino-7-(6-carbamoylpyridin-3-yl)pyrrolo[2,1-f] [1,2,4]triazin-5-yl)piperidin-3-yl)-3-(2-(dimethylamino)ethoxy)thieno [3,2-c]pyridine-2-carboxamide]
27	CC(C)c1cc(C(=O)N[C@@H]2CCCN(c3cc(-c4ccnc(C(F)F)c4)n4ncnc(N)c34)C2)[nH]n1 [Example 486, (R)-N-(1-(4-amino-7-(2-(difluoromethyl)pyridin-4-yl)pyrrolo[2,1-f][1,2,4]triazin-5-yl)piperidin-3-yl)-3-isopropyl-1H-pyrazole-5-carboxamide]
6	CC1CC(Oc2cc(Cl)sc2C(=O)NC2CCCN(c3cc(-c4cncnc4)n4ncnc(N)c34)C2)CCN1 (single isomer, unassigned) [Example 625]
8	N#Cc1cc(-c2cc(N3CCC[C@@H](NC(=O)c4sc(C(F)F)cc4OC4COC4)C3)c3c(N)ncnn23)ccn1 [Example 437, (R)-N-(1-(4-amino-7-(2-cyanopyridin-4-yl)pyrrolo[2,1-f][1,2,4]triazin-5-yl)piperidin-3-yl)-5-(difluoromethyl)-3-(oxetan-3-yloxy)thiophene-2-carboxamide]
230	Cc1ccc(C(=O)N[C@@H]2CCN(c3cc(-c4ccc(S(C)(=O)=O)cc4)n4ncnc(N)c34)C2)s1 [Example 136, (R)—N-(1-(4-amino-7-(4-(methylsulfonyl)phenyl)pyrrolo[2,1-f][1,2,4]triazin-5-yl)pyrrolidin-3-yl)-5-methylthiophene-2-carboxamide, TFA]
9	Nc1ncnn2c(-c3ccnc(C(F)F)c3)cc(N3CCC[C@@H](NC(=O)c4sc(Cl)cc4OCCN4CCC(F)(F)CC4)C3)c12 [Example 293, (R)-N-(1-(4-amino-7-(2-(difluoromethyl)pyridin-4-yl)pyrrolo[2,1-f][1,2,4]triazin-5-yl)piperidin-3-yl)-5-chloro-3-(2-(4,4-difluoropiperidin-1-yl)ethoxy)thiophene-2-carboxamide]
477	COC(=O)N1CC=C(c2cc(N3CCC[C@@H](NC(=O)c4sc5ccc(C#N)cc5c4OC4CCN(C(=O)OC(C)(C)C)CC4)C3)c3c(N)ncnn23)C1 [Example 678, tert-butyl (R)-4-((2-((1-(4-amino-7-(1-(methoxycarbonyl)-2,5-dihydro-1H-pyrrol-3-yl)pyrrolo[2,1-f][1,2,4]triazin-5-yl)piperidin-3-yl)carbamoyl)-5-cyanobenzo[b]thiophen-3-yl)oxy)piperidine-1-carboxylate]

Compound	IC50 [nM]
methyl 3-(4-amino-5-((3R)-3-(5-chloro-3-((2-methylpiperidin-4-yl)oxy)thiophene-2-carboxamido)piperidin-1-yl)pyrrolo[2,1-f][1,2,4]triazin-7-yl)-2,5-dihydro-1H-pyrrole-1-carboxylate [Example 621]	6

Reference: US20260250290A1 (BRISTOL-MYERS SQUIBB COMPANY, priority 2023, published 2026)
